Test system: bone marrow stromal cell line derived from C57BL/6NTac mice
Experiment: In vitro clonogenic radiation survival curves
Type: cell-based, mouse
Conditions: 0 to 8 Gy
Method: FIG. 12A is a graph of surviving fraction versus radiation dose, illustrating the in vitro radioprotection and mitigation of bone marrow stromal cells. In vitro survival curves were performed using a bone marrow stromal cell line derived from C57BL/6NTac mice. Cells were incubated in 100 μM MMS350 for one hour before irradiation or was added to the cells 10 min after irradiation. Cells were irradiated to doses ranging from 0 to 8 Gy, plated in 4 well tissue culture plates, incubated for 7 days at 37° C. in a humidified CO2 incubator, and stained with crystal violet. Colonies of greater than 50 cells were counted and analyzed using a linear quadratic model or single-hit, multi-target model.
The murine C57BL/6 bone marrow stromal cell line (Epperly M W, Sikora C A, Defilippi S, Gretton J E, Greenberger J S. Bone marrow origin of myofibroblasts in irradiation pulmonary fibrosis. Am J Resp Molecular Cell Biology 2003; 29:213-224) and its use in clonogenic radiation survival curves has been described (Epperly M W, Gretton J E, Bernarding M, Nie S, Rasul B, Greenberger J S. Mitochondrial localization of copper/zinc superoxide dismutase (Cu/ZnSOD) confers radioprotective functions in vitro and in vivo. Radiation Research 2003; 160:568-578).
Cell lines were irradiated at dose rate of 70 cGy per minute using a Cesium Gamma Cell Irradiator according to published methods. […]

In the case of `CC1(C[S+]([O-])CC2(C)COC2)COC1` [Compound 3, 3,3′-Sulfinylbis(methylene)bis(3-methyloxetane)], the D0 (100 μM MMS350 added 10 min after irradiation, control 1.9±0.1, p=0.0444) was 2.4±0.3 and the “shoulder on the survival curve (ñ)” value (100 μM MMS350 for one hour before irradiation, control 5.8±1.1, p=0.0039) was 14.9±2.9.
